Series [1] relates to pS6K1 (p-p70 S6 Kinase (Thr389)) in MCF-7 cells. Briefly: AlphaLISA Ultra pS6K1 Assay. It is filed as cell-based. The note with it: Homo sapiens, 1.5 h; MCF7 cells, 90 min. In a few lines: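 AlphaLISA Ultra read-out (acceptor beads 2 h, then donor beads 2 h) on thawed lysates of MCF-7 cells. Cells had 20–24 h after seeding and a 2 h medium change, then 90 min of compound exposure at 0.5% final DMSO, with lysates stored at −80 °C.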
In general terms: Alpha assays give light when donor and acceptor beads are brought close together.

Series [2] concerns pAKT (p-Akt 1/2/3 (Ser473)) in MCF-7 cells. Briefly: AlphaLISA Ultra pAKT Assay. The note with it: Homo sapiens, 1.5 h; MCF7 cells, 90 min. The class given is cell-based. As to the method: AlphaLISA Ultra pAKT Assay
1. MCF-7 cells in Corning 3701 plate and incubate for 20˜24 hour.
16,000˜20,000 cells will be seeded in 36 μL medium per well.
2. Change the culture medium with fresh medium and incubate for another 90 minutes.
3. […]
4. Aspirate […] by HAMILTON, 10 μL rest per well.
5. Add 10 μL 2× lysis buffer using HAMILTON; total volume in wells is 20 μL. Allow cells to shake for 30 min. Cover plate by plastic foil and store plate at −80° C. up to analysis.
6. Thaw cell lysate at RT and transfer 10 ul lysate to assay plate (Optiplate-384).
7. Add 5 μL acceptor beads into assay plate and incubation for 2 hours
8. Add 5 μL donor beads and incubation for 2 hours
9. Count the plate by EnSpire Multimode Plate Reader

Another series has as its system mTORC1 over mTORC2. In words: mTORC1 selectivity over mTORC2 at 24 hrs (Western blot based pS6K1 and pAKT assay). The class given is cell-based. The note with it: 24 hrs. (Immunoblotting shows a protein as a band on a membrane.)
A short description of series [3]: Solubility in 100 mM phosphate buffer (pH 7.4). It is filed as physicochemical. The note with it: pH 7.4, aqueous buffer. From the text: The compound numbers correspond to the compound numbers in Table 1.

Each structure is given as a SMILES string. ≈ marks a conversion by molar mass, not a printed value.

Usually IC50 stands for the concentration needed to halve the response being measured. Read a high IC50 as lower potency. For `CO[C@@H]1C[C@H](C[C@@H](C)[C@@H]2CC(=O)[C@H](C)/C=C(\C)[C@@H](O)[C@@H](OC)C(=O)[C@H](C)C[C@H](C)/C=C/C=C/C=C(\C)C(OCCOCCO)C[C@@H]3CC[C@@H](C)[C@@](O)(O3)C(=O)C(=O)N3CCCC[C@H]3C(=O)O2)CC[C@H]1OCCO` (stereo partly drawn) [I-23, (21E,23E,25E,26E,34R,35S,36R,37R,38S,41S,43S,45R,46R,55R)-45,55-dihydroxy-42-[2-(2-hydroxyethoxy)ethoxy]-43-[(1R)-2-[(1S,2R,3R)-3-(2-hydroxyethoxy)-2-methoxy-cyclohexyl]-1-methyl-ethyl]-46-methoxy-34, 35,36,37,47,48-hexamethyl-66,67-dioxa-56-azatricyclohexatriaconta-21, 23,25(47),26(48)-tetraene-49,50,51,52,53-pentone], the IC50 in series [1] is below 0.1 nM; in series [2], at least 100 nM. The “mTORC1 selective @ 24 hrs” value in the series on mTORC1 over mTORC2 was “YES”.

For the molecule `CO[C@@H]1C[C@H](C[C@@H](C)[C@@H]2CC(=O)[C@H](C)/C=C(\C)[C@@H](O)[C@@H](OC)C(=O)[C@H](C)C[C@H](C)/C=C/C=C/C=C(\C)C(OCCOCCOCCOCCO)C[C@@H]3CC[C@@H](C)[C@@](O)(O3)C(=O)C(=O)N3CCCC[C@H]3C(=O)O2)CC[C@H]1OCCO` (stereo partly drawn) [I-22, (21E,23E,25E,26E,38R,39S,40R,41R,42S,45S,47S,49R,50R,59R)-49, 59-dihydroxy-46-[2-[2-[2-(2-hydroxyethoxy)ethoxy]ethoxy]ethoxy]-47-[(1R)-2-[(1S,2R, 3R)-3-(2-hydroxyethoxy)-2-methoxy-cyclohexyl]-1-methyl-ethyl]-50-methoxy-38,39,40,41,51,52-hexamethyl-70, 71-dioxa-60-azatricyclohexatriaconta-21,23,25(51),26(52)-tetraene-53, 54,55,56,57-pentone], the values for the IC50 in series [1] and in series [2] were 0.1 to 1 nM and at least 100 nM, respectively. For the same molecule, the “mTORC1 selective @ 24 hrs” value in the series on mTORC1 over mTORC2 is recorded as “YES”.

Take `CO[C@@H]1C[C@H](C[C@@H](C)[C@@H]2CC(=O)[C@H](C)/C=C(\C)[C@@H](O)[C@@H](OC)C(=O)[C@H](C)C[C@H](C)/C=C/C=C/C=C(\C)C(OCC(O)CO)C[C@@H]3CC[C@@H](C)[C@@](O)(O3)C(=O)C(=O)N3CCCC[C@H]3C(=O)O2)CC[C@H]1O` (stereo partly drawn) [I-25, (21E,23E,25E,26E,30R,31S,32R,33R,35R,37S,39S,40S,41R,42R,52S)-39-(2,3-dihydroxypropoxy)-41, 52-dihydroxy-40-[(1S)-2-[(1S,3R,4R)-4-hydroxy-3-methoxy-cyclohexyl]-1-methyl-ethyl]-42-methoxy-30, 31,32,33,43,44-hexamethyl-64,65-dioxa-53-azatricyclohexatriaconta-21, 23,25(43),26(44)-tetraene-45,46,47,48,49-pentone]: the IC50 in series [1] is 0.1 to 1 nM; in series [2], at least 100 nM. Moreover, the “mTORC1 selective @ 24 hrs” value in the series with mTORC1 over mTORC2 is reported as “YES”.

One may read the solubility as the concentration that dissolves in the medium under given conditions. A higher solubility goes with much dissolved substance. On to `CO[C@@H]1C[C@H](C[C@@H](C)[C@@H]2CC(=O)[C@H](C)/C=C(\C)[C@@H](O)[C@@H](OC)C(=O)[C@H](C)C[C@H](C)/C=C/C=C/C=C(\C)[C@@H](OCCOCCOCCO)C[C@@H]3CC[C@@H](C)[C@@](O)(O3)C(=O)C(=O)N3CCCC[C@H]3C(=O)O2)CC[C@H]1O` [Compound I-29], for which the IC50 in series [1] was below 0.1 nM; in series [2] it was at least 100 nM. This molecule also came in with a solubility in series [3] of 30 to 60 µM (≈ 31 to 61.9 µg/mL).

Turning to `CO[C@@H]1C[C@H](C[C@@H](C)[C@@H]2CC(=O)[C@H](C)/C=C(\C)[C@@H](O)[C@@H](OC)C(=O)[C@H](C)C[C@H](C)/C=C/C=C/C=C(\C)C(OCC3COCCOCCOCCO3)C[C@@H]3CC[C@@H](C)[C@@](O)(O3)C(=O)C(=O)N3CCCC[C@H]3C(=O)O2)CC[C@H]1O` (stereo partly drawn) [I-10], the values for the IC50 in series [1] and in series [2] were below 0.1 nM and at least 100 nM, respectively. In addition, in the series on mTORC1 over mTORC2, the “mTORC1 selective @ 24 hrs” value is on record as “YES”.

For the molecule `CO[C@@H]1C[C@H](C[C@@H](C)[C@@H]2CC(=O)[C@H](C)/C=C(\C)[C@@H](O)[C@@H](OC)C(=O)[C@H](C)C[C@H](C)/C=C/C=C/C=C(\C)[C@H](OCCOCCOCCO)C[C@@H]3CC[C@@H](C)[C@@](O)(O3)C(=O)C(=O)N3CCCC[C@H]3C(=O)O2)CC[C@H]1O` [Compound I-30], the IC50 in series [1] is 0.1 to 1 nM; in series [2] it was at least 100 nM. The molecule further showed a solubility in series [3] above 60 µM.

(Values after patent publication US11944605B2, “Rapamycin analogs and uses thereof” (Janssen Pharmaceutica NV, priority 2018, dated 2024).)
